# Data as given in paper PMC5893361 (International Journal for Parasitology, 2018).
# Like-named read-outs stand apart in the source and are kept apart here.
# Key:
# BmVAL-1 = biological target: T1, BmVAL-1 (Brugia malayi, UniProt A0A0J9Y762); assay: radioligand saturation binding, Q-sepharose adsorption
# T1 construct: gene bma-scl-11.3; mature protein without 16-residue signal peptide, two vector-derived C-terminal residues; 206 residues; secreted from Nicotiana benthamiana; N-glycosylated at N52 and N138
# T1 sequence (A0A0J9Y762 entry or part of it): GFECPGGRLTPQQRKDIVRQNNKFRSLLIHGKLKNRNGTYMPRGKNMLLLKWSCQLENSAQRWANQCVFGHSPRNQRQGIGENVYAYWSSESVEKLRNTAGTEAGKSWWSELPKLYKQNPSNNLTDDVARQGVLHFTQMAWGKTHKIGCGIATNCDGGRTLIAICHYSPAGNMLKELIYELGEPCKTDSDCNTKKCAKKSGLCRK
# Pry1 = biological target: T2, Pry1 (Saccharomyces cerevisiae, UniProt P47032); assay: as above
# T2 construct: construct not described here (full length secreted protein or CAP domain)
# T2 sequence (P47032 20-299): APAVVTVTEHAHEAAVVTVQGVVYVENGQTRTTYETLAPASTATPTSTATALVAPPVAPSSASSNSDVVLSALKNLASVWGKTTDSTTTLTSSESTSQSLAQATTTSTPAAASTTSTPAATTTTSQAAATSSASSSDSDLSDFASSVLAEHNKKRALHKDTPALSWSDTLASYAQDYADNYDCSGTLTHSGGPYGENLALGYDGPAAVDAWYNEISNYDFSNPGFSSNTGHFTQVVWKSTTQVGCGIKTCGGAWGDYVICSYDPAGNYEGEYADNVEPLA
structure (smiles),measurement,setting,value
CC(C)CCC[C@@H](C)[C@H]1CC[C@H]2[C@@H]3CC=C4C[C@@H](O)CC[C@]4(C)[C@H]3CC[C@]12C [cholesterol],Kd,BmVAL-1,0.99 µM
same,Kd,Pry1,1.9 µM
CCCCCCCCCCCCCCCC(=O)O [palmitate],Kd,BmVAL-1; read-out: Kd,83 µM
